Experimental data: patent US8110543B2, “Anti-invasive and anti-angiogenic compositions” (Angstrom Pharmaceuticals, Inc., priority 1997, dated 2012)

Legend:
[1] = test system: U87 tumors; assay: U87 glioblastoma orthotopic model; format: in vivo, mice; conditions: tumor sections, mouse-CD31 immunostaining
Procedure: U87 cells were inoculated into the ventricles of nude mice and treatment was initiated 72 hrs after inoculation. Tumor volume was determined using caliper measurements after euthanasia and necropsy.
A: Control; B: Å6 only; C: CDDP only; D: Å6+CDDP.
U87 tumors were surgically inoculated into the cerebral ventricles of mice. The animals were allowed to recover for 72 hours at which time treatment with Å6 (75 mg/kg/day IP bid), CDDP (3 mg/kg/day given every other day from day 4×6 administrations), or a combination of Å6+CDDP was initiated,
Animals were treated for 21 days at which time they were euthanized and their brains evaluated for the presence of tumor. Transverse sections were stained with hematoxylin and eosin (H&E).
Tumor sections were also evaluated for microvessel density using antibodies specific for mouse-CD31 in immunostaining. Very few CD31^+ foci were evident in animals treated with the combination of Å6+CDDP.
Tumors were established as in the previous section, and the same therapeutic regimens were employed. Treatment was discontinued at day 21, and survival was measured. Control animals appeared moribund around day 25 and all of the animals in this group were dead by day 30.

[2] = design: species or system mice; conditions: mouse, in vivo
Procedure: CDDP was tested at a dose of 3 mg/kg/day given every other day from day 4×6 administrations, which converts to approximately 6 mg/m^2 per administration. This is a substantially lower dose than that typically given to human patients (20-40 mg/m^2 for most tumors although doses as high as 200 mg/m^2 have been reported in neuroblastomas; the dose depends on the regimen used) since dose limiting toxicity (as exemplified by weight loss) occurs in mice at doses greater than 6 mg/m^2.

Question: Which “microvessel density (CD31+ foci), angiogenesis” value [1] does the source give for `[NH2][Pt]([NH2])([Cl])[Cl]` [CDDP, cisplatin, reference compound] here?
Answer: The value was “inhibited angiogenesis to some extent”.

Question: What about the “dose at which dose limiting toxicity (weight loss) occurs” value [2] of the same compound?
Answer: The value was “greater than 6 mg/m^2”.
